According to patent publication US20250051356A1, “RIFABUTIN ANALOGS FOR THE TREATMENT OF DISEASE” (priority 2021, published 2025):
Values after ≈ are worked out from the molar mass of the structure shown. Like-named read-outs stand apart in the source and are kept apart here.

Columns and labels:
Type in all cases: cell-based
[1] = tested on: M. xenopi (ATCC 19250); assay: MIC against M. xenopi in CAMHB + ADC; conditions: Mycobacterium xenopi
[2] = tested on: A. baumannii (HUMC1 strain); assay: MIC by broth microdilution against A. baumannii in RPMI + 10% FCS; conditions: Acinetobacter baumannii, read-out: MIC A. baumannii
[3] = tested on: M. abscessus subsp. abscessus ATCC 19977; assay: MIC against M. abscessus in Middlebrook 7H9 + ADC; conditions: Mycobacteroides abscessus
[4] = tested on: M. kansasii (ATCC 12478); assay: MIC against M. kansasii in CAMHB + ADC; conditions: Mycobacterium kansasii
[5] = tested on: M. avium (ATCC 25291); assay: MIC against M. avium in CAMHB + ADC; conditions: Mycobacterium avium
[6] = tested on: S. aureus (UAMS-1625 strain); assay: MIC by broth microdilution against S. aureus; conditions: Staphylococcus aureus, read-out: MIC S. aureus
[7] = ATCC19250, ATCC 19250, CAMHB + ADC (5%), read-out: MIC M. xenopi
[8] = ATCC19977, ATCC 19977, 7H9 + ADC, read-out: MIC M. abscessus
[9] = ATCC12478, ATCC 12478, CAMHB + ADC (5%), read-out: MIC M. kansasii
[10] = ATCC25291, ATCC 25291, CAMHB + ADC (5%), read-out: MIC M. avium
[11] = ATCC19250, read-out: MIC M. xenopi
[12] = ATCC19977, read-out: MIC M. abscessus
[13] = ATCC12478, read-out: MIC M. kansasii
[14] = ATCC25291, read-out: MIC M. avium

Structure (SMILES) | MIC [1, 7] [µg/mL] | MIC ([2]; HUMC1 strain, RPMI + 10% FCS) [µg/mL] | MIC [3, 8] [µg/mL] | MIC [4, 9] [µg/mL] | MIC [5, 10] [µg/mL] | MIC [6] [µg/mL] | MIC [1, 11] [µg/mL] | MIC [2] [µg/mL] | MIC [3, 12] [µg/mL] | MIC [4, 13] [µg/mL] | MIC [5, 14] [µg/mL]
CO[C@H]1/C=C/OC2(C)Oc3c(C)c(O)c4c(c3C2=O)C2=NC3(CCN(CC(C)C)CC3)NC2=C(NC(=O)/C(C)=C\C=C\[C@H](C)[C@H](O)[C@@H](C)[C@@H](O)[C@@H](C)[C@H](OC(=O)CCC(=O)N2CCC(N(C)c3ccccc3)CC2)[C@@H]1C)C4=O (stereo partly drawn) [Compound 82] | 0.03 | 0.016 | 0.25 | 0.016 | 0.25 | 0.5 (≈ 0.464 µM) | – | – | – | – | –
CO[C@H]1/C=C/OC2(C)Oc3c(C)c(O)c4c(c3C2=O)C2=NC3(CCN(CC(C)C)CC3)NC2=C(NC(=O)/C(C)=C\C=C\[C@H](C)[C@H](O)[C@@H](C)[C@@H](O)[C@@H](C)[C@H](OC(=O)CCC(=O)N2CCCN(c3ccc(F)cc3)CC2)[C@@H]1C)C4=O (stereo partly drawn) [Compound 83] | 0.03 | 0.016 | 0.25 | 0.008 | 0.25 | 0.5 (≈ 0.462 µM) | – | – | – | – | –
CO[C@H]1/C=C/OC2(C)Oc3c(C)c(O)c4c(c3C2=O)C2=NC3(CCN(CC(C)C)CC3)NC2=C(NC(=O)/C(C)=C\C=C\[C@H](C)[C@H](O)[C@@H](C)[C@@H](O)[C@@H](C)[C@H](OC(=O)CCCC(=O)N2CCCN(c3ccc(F)cc3)CC2)[C@@H]1C)C4=O (stereo partly drawn) [Compound 86] | 0.03 | 0.008 | 0.125 | 0.008 | 0.125 | 0.5 (≈ 0.456 µM) | – | – | – | – | –
CO[C@H]1/C=C/O[C@@]2(C)Oc3c(C)c(O)c4c(c3C2=O)C2=NC3(CCN(CC(C)C)CC3)NC2=C(NC(=O)/C(C)=C\C=C\[C@H](C)[C@H](O)[C@@H](C)[C@@H](O)[C@@H](C)[C@H](OC(=O)CC(=O)N2CCN(Cc3ccccc3)CC2)[C@@H]1C)C4=O [Compound 91] | 0.03 | 0.016 | 0.125 | 0.001 | 0.125 | 0.25 (≈ 0.238 µM) | – | – | – | – | –
CO[C@H]1/C=C/OC2(C)Oc3c(C)c(O)c4c(c3C2=O)C2=NC3(CCN(CC(C)C)CC3)NC2=C(NC(=O)/C(C)=C\C=C\[C@H](C)[C@H](O)[C@@H](C)[C@@H](O)[C@@H](C)[C@H](OC(=O)CC(=O)NC2CCN(Cc3ccccc3)C2)[C@@H]1C)C4=O (stereo partly drawn) [Compound 93] | 0.25 | 0.008 | 0.25 | 0.008 | 0.5 | 0.125 (≈ 0.119 µM) | – | – | – | – | –
CO[C@H]1/C=C/O[C@@]2(C)Oc3c(C)c(O)c4c(c3C2=O)C2=NC3(CCN(CC(C)C)CC3)NC2=C(NC(=O)/C(C)=C\C=C\[C@H](C)[C@H](O)[C@@H](C)[C@@H](O)[C@@H](C)[C@H](OC(=O)CC(=O)N2CCN(C3Cc5ccccc5C3)CC2)[C@@H]1C)C4=O [Compound 95] | 0.03 | 0.03 | 0.125 | 0.002 | 0.125 | 0.5 (≈ 0.465 µM) | – | – | – | – | –
CO[C@H]1/C=C/OC2(C)Oc3c(C)c(O)c4c(c3C2=O)C2=NC3(CCN(CC(C)C)CC3)NC2=C(NC(=O)/C(C)=C\C=C\[C@H](C)[C@H](O)[C@@H](C)[C@@H](O)[C@@H](C)[C@H](OC(=O)CC(=O)N2CCN(C3CCCCC3)CC2)[C@@H]1C)C4=O (stereo partly drawn) [Compound 96] | – | 0.008 | 0.25 | 0.008 | 0.03 | 0.125 (≈ 0.12 µM) | 0.125 | – | – | – | –
CO[C@H]1/C=C/OC2(C)Oc3c(C)c(O)c4c(c3C2=O)C2=NC3(CCN(CC(C)C)CC3)NC2=C(NC(=O)/C(C)=C\C=C\[C@H](C)[C@H](O)[C@@H](C)[C@@H](O)[C@@H](C)[C@H](OC(=O)CC(=O)NCCCN(C)c2ccccc2)[C@@H]1C)C4=O (stereo partly drawn) [Compound 97] | 0.06 | 0.008 | 0.25 | 0.004 | 0.125 | 0.25 (≈ 0.241 µM) | – | – | – | – | –
CO[C@H]1/C=C/O[C@@]2(C)Oc3c(C)c(O)c4c(c3C2=O)C2=NC3(CCN(CC(C)C)CC3)NC2=C(NC(=O)/C(C)=C\C=C\[C@H](C)[C@H](O)[C@@H](C)[C@@H](O)[C@@H](C)[C@H](OC(=O)CC(=O)N2CCN(c3ccccn3)CC2)[C@@H]1C)C4=O [Compound 99] | 0.125 | 0.008 | 0.25 | 0.004 | 0.125 | 0.06 (≈ 0.0579 µM) | – | – | – | – | –
CO[C@H]1/C=C/OC2(C)Oc3c(C)c(O)c4c(c3C2=O)C2=NC3(CCN(CC(C)C)CC3)NC2=C(NC(=O)/C(C)=C\C=C\[C@H](C)[C@H](O)[C@@H](C)[C@@H](O)[C@@H](C)[C@H](OC(=O)CC(=O)N2CCC(c3ccccc3)CC2)[C@@H]1C)C4=O (stereo partly drawn) [Compound 101] | – | – | – | – | – | 0.5 (≈ 0.483 µM) | 0.03 | 0.06 | 0.125 | 0.002 | 0.03
CO[C@H]1/C=C/OC2(C)Oc3c(C)c(O)c4c(c3C2=O)C2=NC3(CCN(CC(C)C)CC3)NC2=C(NC(=O)/C(C)=C\C=C\[C@H](C)[C@H](O)[C@@H](C)[C@@H](O)[C@@H](C)[C@H](OC(=O)CC(=O)N2C3CCC2CC(c2ccccc2)C3)[C@@H]1C)C4=O (stereo partly drawn) [Compound 102] | – | – | – | – | 0.03 | 0.5 (≈ 0.472 µM) | 0.06 | 0.03 | 0.25 | 0.008 | –
CO[C@H]1/C=C/O[C@@]2(C)Oc3c(C)c(O)c4c(c3C2=O)C2=NC3(CCN(CC(C)C)CC3)NC2=C(NC(=O)/C(C)=C\C=C\[C@H](C)[C@H](O)[C@@H](C)[C@@H](O)[C@@H](C)[C@H](OC(=O)CC(=O)N2CCC(c3ccncc3)CC2)[C@@H]1C)C4=O [Compound 104] | 0.125 | 0.004 | 0.25 | 0.004 | 0.25 | 0.06 (≈ 0.058 µM) | – | – | – | – | –
CO[C@H]1/C=C/O[C@@]2(C)Oc3c(C)c(O)c4c(c3C2=O)C2=NC3(CCN(CC(C)C)CC3)NC2=C(NC(=O)/C(C)=C\C=C\[C@H](C)[C@H](O)[C@@H](C)[C@@H](O)[C@@H](C)[C@H](OC(=O)CC(=O)N2CCC(Nc3ccc(C)cc3)CC2)[C@@H]1C)C4=O [Compound 105] | – | – | – | – | – | 0.25 (≈ 0.235 µM) | 0.03 | 0.06 | 0.25 | 0.004 | 0.125
COc1cc(NC2CCN(C(=O)CC(=O)O[C@H]3[C@H](C)[C@H](O)[C@H](C)[C@@H](O)[C@@H](C)/C=C/C=C(/C)C(=O)NC4=C5NC6(CCN(CC(C)C)CC6)N=C5c5c(c(O)c(C)c6c5C(=O)[C@@](C)(O/C=C/[C@H](OC)[C@H]3C)O6)C4=O)CC2)cc(OC)c1 [Compound 106] | 0.125 | 0.008 | 0.25 | 0.03 | 0.5 | 0.25 (≈ 0.225 µM) | – | – | – | – | –
